# Several values for one entry are separate records, joined by “and”; a condition that tells them apart may be missing. Equal values may be shown once. Read-outs that look alike come from different tables or passages of the source.
# Legend:
# [1] = tested on: encephalitogenic lymphocytes; experiment: Spontaneous adhesion of encephalitogenic T cells on purified VCAM-1; format: cell-based, SJL mice
# Protocol: Spontaneous adhesion of encephalitogenic lymphocytes was measured in adhesion assays on purified ICAM-1 and VCAM-1 as previously described (Constantin G. et al., J. Immunol. 162, 1144-1149, 1999). Autoreactive T cells were obtained from SJL mice immunized with PLP139-151 as described (Piccio L. et al., J. Immunol. 168, 1940-1949, 2002). Lymphocytes were treated with test compound at concentrations between 5-100 μM for 1 h, while control/untreated cells were treated with vehicle (DMSO). Results are expressed as percentage of inhibition over control (=100%) ±S.D and are the mean of three-four experiments.
# ICAM-1 and VCAM-1 are adhesion molecules from the family of immunoglobulins and control the migration of lymphocytes through the endothelium during inflammatory responses. Encephalitogenic T cells are activated lymphocytes displaying spontaneous adhesion on ICAM-1 and VCAM-1 and have increased migration capacities in inflammation sites. Spontaneous adhesion of encephalitogenic lymphocytes was measured in adhesion assays on purified ICAM-1 and VCAM-1 as described in the method.
# [2] = tested on: NADPH-oxidase; experiment: Respiratory burst (H2O2 assay), NADPH-oxidase activation in PMNs; format: cell-based; settings: PMA 200 ng/ml; 10, 50, 100 μM; FIG. 1a
# Protocol: (§1) NADPH-oxidase activation was measured as induction of H2O2 release (derived from dismutation of O2^−) triggered in PMNs and monocytes by PMA (200 ng/ml). Briefly, PMNs and monocytes were pretreated at 37° C. for 30-60 min with test compound at different concentrations, and stimulated with phorbol 12-myristate 13-acetate (PMA, 200 ng/ml) dissolved in 0.5 ml of a standard reaction mixture. Release of H2O2 was evaluated in real time at time points of 5 min by using a microplate fluorescence reader (Perkin-Elmer). Results are expressed as nmoles of H2O2 released over time by 10^6 cells. Shown are dose-response curves of inhibitory effect on H2O2 release over 60 min.
# [3] = tested on: NADPH-oxidase; experiment: Respiratory burst (H2O2 assay), NADPH-oxidase activation in monocytes; format: cell-based; settings: PMA 200 ng/ml; 10, 50, 100 μM; FIG. 1b
# Protocol: as §1
# [4] = tested on: experimental autoimmune encephalomyelitis (EAE); experiment: EAE, preventive model; format: in vivo
# Protocol: (§2) Female SJL/J mice, 6-8 weeks of age, were obtained from Harlan-Nossan Italy. Mice were immunized s.c. with 200 μg PLP139-151 in 0.1 ml emulsion consisting of equal volumes of PBS and CFA (Difco Laboratories, Detroit, Mich.) and containing 6 mg/ml of Mycobacterium tuberculosis H37Ra (Difco). To induce a severe disease, in some experiments 400 ng Pertussis toxin (PTX) was administered i.v. at days 0 and 2 (Constantin, G. et al. Eur. J. Immunol., 28, 3523-3529, 1998). Mice were scored for EAE according to the following scale: 0, no disease; 1, tail weakness; 2, paraparesis; 3, paraplegia; 4, paraplegia with forelimb weakness or paralysis; 5, moribund or dead animals (Brocke S. et al., Autoimmune disease models. Academic Press, San Diego, 1-4, 1994).
# Test compound was administered daily at 60 mg/kg i.p. for 17 days starting from the day of immunization. Control animals received vehicle (DMSO).
# (§3) The effects of compound of Example 1 (PCT/EP2005/051908) were determined on EAE (experimental autoimmune encephalomyelitis), the animal model of multiple sclerosis (Tables 4 and 5). SJL mice were immunized with PLP139-151 peptide from cerebral proteolipid. The disease model has relapses and remission periods, as described in relapsing-remitting MS, the most frequent form of human disease accounting for 85% of all MS patients.
# In the preventive model (Table 4), mice received 60 mg/kg daily of Compound of Example 1 (PCT/EP2005/051908), intraperitoneally, for 17 days starting from the day of immunization. Control animals received vehicle (DMSO). Control animals developed disease with a mean day of onset of 13±1.5. Mean maximum clinical score in control animals was 2.7±0.3. All control mice that developed disease also presented clinical relapses.
# [5] = tested on: experimental autoimmune encephalomyelitis (EAE); format: in vivo; settings: therapeutic
# Protocol: as §2, §3
# In the therapeutic model (Table 5), mice received 70 mg/kg of Compound of Example 1 (PCT/EP2005/051908), daily, intraperitoneally, for 11 days starting from the day of clinical onset. The treated mice also received 4 doses intravenously (i.v.) of 10 mg/kg each. Control animals received vehicle (DMSO). Control animals developed disease with a mean day of onset of 13.8±3, while treated mice developed EAE at 13.5±2 days postimmunization. Mean (±S.E.M.) maximum clinical score in control animals was 1.75±0.6.
# [6] = preventive, 60 mg/kg i.p. daily for 17 days from immunization
compound,measurement,setting,value
COC(=O)c1[nH]c2cc(OC)c(OC)cc2c1-c1ccc(OC)cc1 [Example 1],"Blocking spontaneous adhesion to VCAM-1, in words",[1],very efficient
same,inhibition at 5 µM,"[1]; Mus musculus, Lymphocyte, [cpd] 5 μM, 1 h, read-out: Inhibition of Spontaneous Adhesion in encephalitogenic lymphocytes (% of control/non-treated cells) VCAM-1",46%
same,inhibition at 10 µM,"[1]; Mus musculus, Lymphocyte, [cpd] 10 μM, 1 h, read-out: Inhibition of Spontaneous Adhesion in encephalitogenic lymphocytes (% of control/non-treated cells) VCAM-1 (converted)",66%
same,inhibition at 25 µM,"[1]; Mus musculus, Lymphocyte, [cpd] 25 μM, 1 h, read-out: Inhibition of Spontaneous Adhesion in encephalitogenic lymphocytes (% of control/non-treated cells) VCAM-1 (converted)",74%
same,inhibition at 50 µM,"[1]; Mus musculus, Lymphocyte, [cpd] 50 μM, 1 h, read-out: Inhibition of Spontaneous Adhesion in encephalitogenic lymphocytes (% of control/non-treated cells) VCAM-1 (converted)",92.4%
same,"NADPH-oxidase activation (H2O2 release) in PMNs, in words",[2],inhibits NADPH-oxidase activation
same,"NADPH-oxidase activation (H2O2 release) in monocytes, in words",[3],inhibits NADPH-oxidase activation
same,"Visible toxicity (appearance of animals, macroscopic pathological analysis)",[4]; 60 mg/kg i.p. daily for 17 days,neither the treatment caused any visible toxicity
same,"Development of clinical signs of disease, in words","[4]; preventive, 60 mg/kg i.p. daily for 17 days",completely blocked
same,Disease incidence,[4]; [6],0/6
same,Mortality,[4]; [6],0/6
same,Mean maximum clinical score,"[4]; preventive, 60 mg/kg i.p. daily for 17 days from immunization, scale 0-5",0
same,Clinical relapses,"[4]; preventive, observation period of 61 days",no treated animals developed clinical relapses
same,Mortality,[5]; 70 mg/kg i.p. daily for 11 days from clinical onset plus 4 i.v. doses of 10 mg/kg,0/6
same,Mean maximum clinical score,"[5]; 70 mg/kg i.p. daily for 11 days from clinical onset plus 4 i.v. doses of 10 mg/kg, scale 0-5, ±S.E.M.",0.89 ± 0.23
same,Inhibition of mean maximum clinical score,[5]; P<0.01,50%
same,Mean day of onset,[5]; treatment started at clinical onset,13.5±2 days postimmunization and 13.5 ± 2.0 days postimmunization
